Reference: patent US11806393B2, “Flavivirus peptide sequences, epitopes, and methods and uses thereof” (priority 2017, dated 2023)

Each substance was assayed on CD8+ T cells (assay: IFNγ-ELISPOT of predicted H-2b-binding ZIKV peptides). Settings: CD8+ T cells of mice infected with MR766 or FSS13025, day 7; positive: SFC per 10^6 CD8+ T cells ≥20 and stimulation index ≥2.
Assay type: cell-based, mouse
Protocol: CD8^+ T cells were isolated by magnetic bead positive selection (Miltenyi Biotec, Germany). A total of 2×10^5 CD8^+ T cells were stimulated with 1×10^5 LPS-blast cells as antigen presenting cells (APCs) and 10 μg of individual ZIKV-derived peptide in 96-well flat-bottom plates (IMMOBILON™-P; Millipore, MA) coated with anti-mouse IFNγ monoclonal antibody (mAb) (clone AN18; Mabtech, Sweden) in triplicate. IFNγ-ELISPOT was performed as previously detailed (Elong Ngono et al., 2016). Positive peptides were those with a number of spot-forming cells (SFC) per 10^6 CD8^+ T cells ≥20 and a stimulation index ≥2 based on the negative control (DMSO). […]
The following results are with reference to FIG. 3A and FIG. 3B, where five-week-old LysMCre^+IFNAR^fl/fl were infected retro-orbitally with 10^4 FFU of ZIKV MR766 or FSS13025. […] A total of 244 peptides from ZIKV strains predicted to bind H-2Kb and H-2db with high affinity were screened. Two independent experiments for each ZIKV strain (n=5 mice for each experiment) were performed in triplicate per peptide. The data are expressed as the mean of spot forming cells (SFC) per 10^6 CD8^+ T cells, and error bars are represented as SEM. One-way ANOVA was used to compare the mean of each peptide with the control (DMSO) ([…]). […] The dotted line corresponds to the average amount of IFNγ produced by MOCK mice when stimulated with positive ZIKV-derived peptides (0.19% of IFNγ+CD8^+ T cells).

Substance | Strains (ZIKV strain for which the peptide induced a positive T cell response, IFNγ-ELISPOT)
9 (SSLVNGVVRL) [compound 9] | MR766
16 (SSLINGVVRL) [compound 16] | FSS
20 (CAEAPNMKVI) [compound 20] | MR766/FSS
27 (SVKKNLPFVM) [compound 27] | MR766/FSS
6 (RAIWYMWL) [compound 6] | MR766
29 (VVIKNGSYV) [compound 29] | MR766/FSS
23 (RMAVLGDTA) [compound 23] | MR766/FSS
8 (SSIAARGYI) [compound 8] | MR766
11 (TGWSNWEEV) [compound 11] | MR766
25 (SNRDFVEGM) [compound 25] | MR766/FSS
2 (AAGAWYVYV) [compound 2] | MR766
1 (AAFTFTKV) [compound 1] | MR766
28 (VSFIFRAN) [compound 28] | MR766/FSS
22 (MAVDMQTLTPV) [compound 22] | MR766/FSS
7 (RQVMNIVSSWL) [compound 7] | MR766
3 (ISFATTLGV) [compound 3] | MR766
12 (TTVSNMAEV) [compound 12] | MR766
24 (RSYCYEASI) [compound 24] | MR766/FSS
21 (IGVSNRDFV) [compound 21] | MR766/FSS
17 (TLGMNKCYI) [compound 17] | FSS
18 (IMVAVGLL) [compound 18] | MR766/FSS
13 (VMIFLSTAV) [compound 13] | MR766
19 (ATMSYECPM) [compound 19] | MR766/FSS
14 (YSLECDPAVI) [compound 14] | MR766
10 (SSWLWKEL) [compound 10] | MR766
5 (PSVRNGNEI) [compound 5] | MR766
4 (MSYECPML) [compound 4] | MR766
15 (AAFTFTKI) [compound 15] | FSS
26 (SQLTPLTLI) [compound 26] | MR766/FSS
